Assay results: paper PMC4965148 (PLoS ONE, 2016)
Like-named read-outs stand apart in the source and are kept apart here.

Assays:
[1] = Plasma and brain concentrations after dosing; type: in vivo, rat; details: rat; for Kp at 30 min / concentration at 30 min: sc; for concentration at 150 min / concentration at 30 min: plasma
Description: At specified time points after dosing, the forebrain (for occupancy), the remaining hindbrain (for brain drug exposure) and plasma were collected, frozen in chilled isopentane and stored at -80°C until assayed.
In brief, 50 μL of the plasma sample was extracted by protein precipitation with 150 μL acetonitrile containing an internal standard and 5 μL of supernatant injected into the LC-MS/MS system. Analytes were separated by reversed phase chromatography and detection of each analyte was achieved through selected reaction monitoring mode of mass spectrometry.

Muscarinic M3 = Muscarinic M3 (Homo sapiens, UniProt P20309); assay: Selectivity panel, binding; details: read-out: % inhibition @ 10 µM
Muscarinic M3, sequence (P20309 whole entry): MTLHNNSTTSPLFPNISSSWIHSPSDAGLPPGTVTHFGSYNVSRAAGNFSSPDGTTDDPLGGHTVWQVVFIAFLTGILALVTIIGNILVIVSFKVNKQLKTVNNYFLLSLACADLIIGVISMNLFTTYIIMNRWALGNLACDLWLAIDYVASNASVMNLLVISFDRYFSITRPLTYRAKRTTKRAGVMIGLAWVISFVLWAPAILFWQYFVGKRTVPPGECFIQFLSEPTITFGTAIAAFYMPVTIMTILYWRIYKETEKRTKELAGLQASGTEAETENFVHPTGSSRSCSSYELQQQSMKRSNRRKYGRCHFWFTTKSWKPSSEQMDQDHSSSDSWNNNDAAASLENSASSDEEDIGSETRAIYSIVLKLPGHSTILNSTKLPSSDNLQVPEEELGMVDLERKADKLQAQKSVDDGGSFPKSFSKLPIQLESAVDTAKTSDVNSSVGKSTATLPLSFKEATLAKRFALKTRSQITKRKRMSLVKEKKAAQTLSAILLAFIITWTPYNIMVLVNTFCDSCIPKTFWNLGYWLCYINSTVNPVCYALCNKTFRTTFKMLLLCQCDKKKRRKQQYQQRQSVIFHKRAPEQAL

With `c1cn(-c2cc(NC3=NC[C@@]4(CN5CCC4CC5)O3)ncn2)cn1` [BMS-933043, (2R)-N-(6-(1H-imidazol-1-yl)-4-pyrimidinyl)-4'H-spiro[4-azabicyclo[2.2.2]octane-2,5'-[1,3]oxazol]-2'-amine] as the compound, how does the Kp at 150 min ([1]; brain/plasma, oral, 1 mg/kg, Rat MK-801 Set Shift (0.3-3 mg/kg study), 1 mg/kg po) read?
Its Kp at 150 min is 0.25.

And the Kp at 150 min ([1]; brain/plasma, oral, 3 mg/kg, Rat MK-801 Set Shift (0.3-3 mg/kg study), 3 mg/kg po)?
The Kp at 150 min was 0.24.

What about the Kp at 150 min ([1]; brain/plasma, oral, 3 mg/kg, Rat MK-801 Set Shift (3-30 mg/kg study), 3 mg/kg po) of the same compound?
Its Kp at 150 min is 0.29.

And the Kp at 150 min ([1]; brain/plasma, oral, 10 mg/kg, Rat MK-801 Set Shift (3-30 mg/kg study), 10 mg/kg po)?
The Kp at 150 min was 0.29.

And the Kp at 150 min ([1]; brain/plasma, oral, 30 mg/kg, Rat MK-801 Set Shift (3-30 mg/kg study), 30 mg/kg po)?
Its Kp at 150 min is 0.31.

And the Kp ([1]; brain/plasma, other: subcutaneous or oral (pooled over all rat studies), rats)?
Its Kp is 0.28.

And the Kp at 30 min ([1]; brain/plasma, 0.03 mg/kg, Rat MMN, 0.03 mg/kg sc, 30 min)?
Its Kp at 30 min is 0.57.

What about the Kp at 30 min ([1]; brain/plasma, 0.3 mg/kg, Rat MMN, 0.30 mg/kg sc, 30 min) of the same compound?
The Kp at 30 min was 0.17.

What about the Kp at 30 min ([1]; brain/plasma, 0.3 mg/kg, Rat N40 Gating, 0.30 mg/kg sc, 30 min) of the same compound?
The Kp at 30 min was 0.26.

What about the Kp at 30 min ([1]; brain/plasma, 0.56 mg/kg, Rat N40 Gating, 0.56 mg/kg sc, 30 min) of the same compound?
Its Kp at 30 min is 0.3.

What about the Kp at 30 min ([1]; brain/plasma, 1 mg/kg, Rat MMN, 1 mg/kg sc, 30 min) of the same compound?
The Kp at 30 min was 0.19.

And the Kp at 30 min ([1]; brain/plasma, 1 mg/kg, Rat N40 Gating, 1 mg/kg sc, 30 min)?
Its Kp at 30 min is 0.33.

And the Kp at 30 min ([1]; brain/plasma, 3 mg/kg, Rat MMN, 3 mg/kg sc, 30 min)?
The Kp at 30 min was 0.19.

And the Kp at 30 min ([1]; brain/plasma, 3 mg/kg, Rat N40 Gating, 3 mg/kg sc, 30 min)?
Its Kp at 30 min is 0.27.

What about the concentration at 150 min ([1]; oral, 0.3 mg/kg, Rat MK-801 Set Shift (0.3-3 mg/kg study), 0.30 mg/kg po, read-out: Plasma Mean ± SD) of the same compound?
The concentration at 150 min was 5.7 ± 0.9 nM.

What about the concentration at 150 min ([1]; oral, 1 mg/kg, Rat MK-801 Set Shift (0.3-3 mg/kg study), 1 mg/kg po, read-out: Plasma Mean ± SD) of the same compound?
The concentration at 150 min was 50 ± 7.4 nM.

And the concentration at 150 min ([1]; oral, 3 mg/kg, Rat MK-801 Set Shift (0.3-3 mg/kg study), 3 mg/kg po, read-out: Plasma Mean ± SD)?
The concentration at 150 min was 410 ± 97 nM.

And the concentration at 150 min ([1]; oral, 3 mg/kg, Rat MK-801 Set Shift (3-30 mg/kg study), 3 mg/kg po, read-out: Plasma Mean ± SD)?
Its concentration at 150 min is 452 ± 60 nM.

And the concentration at 150 min ([1]; oral, 10 mg/kg, Rat MK-801 Set Shift (3-30 mg/kg study), 10 mg/kg po, read-out: Plasma Mean ± SD)?
The concentration at 150 min was 1860 nM.

What about the concentration at 150 min ([1]; oral, 30 mg/kg, Rat MK-801 Set Shift (3-30 mg/kg study), 30 mg/kg po, read-out: Plasma Mean ± SD) of the same compound?
Its concentration at 150 min is 7260 nM.

What about the concentration at 150 min ([1]; po, 1 mg/kg, Rat Neonatal PCP ID/ED, 1 mg/kg po, read-out: Plasma Mean ± SD) of the same compound?
The concentration at 150 min was 21 ± 9 nM.

And the concentration at 150 min ([1]; po, 3 mg/kg, Rat Neonatal PCP ID/ED, 3 mg/kg po, read-out: Plasma Mean ± SD)?
The concentration at 150 min was 225 ± 50 nM.

What about the concentration at 30 min ([1]; 0.01 mg/kg, Rat MMN, 0.01 mg/kg sc, 30 min, read-out: Plasma Mean ± SD) of the same compound?
Its concentration at 30 min is 2.4 ± 0.1 nM.

What about the concentration at 30 min ([1]; 0.03 mg/kg, Rat MMN, 0.03 mg/kg sc, 30 min, read-out: Plasma Mean ± SD) of the same compound?
The concentration at 30 min was 23 ± 29 nM.

What about the concentration at 30 min ([1]; 0.1 mg/kg, Rat MMN, 0.10 mg/kg sc, 30 min, read-out: Plasma Mean ± SD) of the same compound?
The concentration at 30 min was 24 ± 0.6 nM.

What about the concentration at 30 min ([1]; 0.3 mg/kg, Rat MMN, 0.30 mg/kg sc, 30 min, read-out: Plasma Mean ± SD) of the same compound?
Its concentration at 30 min is 75 ± 6 nM.

And the concentration at 30 min ([1]; 0.3 mg/kg, Rat N40 Gating, 0.30 mg/kg sc, 30 min, read-out: Plasma Mean ± SD)?
The concentration at 30 min was 81 ± 8 nM.

What about the concentration at 30 min ([1]; 0.56 mg/kg, Rat N40 Gating, 0.56 mg/kg sc, 30 min, read-out: Plasma Mean ± SD) of the same compound?
Its concentration at 30 min is 146 ± 12 nM.

What about the concentration at 30 min ([1]; 1 mg/kg, Rat MMN, 1 mg/kg sc, 30 min, read-out: Plasma Mean ± SD) of the same compound?
The concentration at 30 min was 398 ± 139 nM.

And the concentration at 30 min ([1]; 1 mg/kg, Rat N40 Gating, 1 mg/kg sc, 30 min, read-out: Plasma Mean ± SD)?
The concentration at 30 min was 295 ± 27 nM.

What about the concentration at 30 min ([1]; 3 mg/kg, Rat MMN, 3 mg/kg sc, 30 min, read-out: Plasma Mean ± SD) of the same compound?
The concentration at 30 min was 1970 nM.

And the concentration at 30 min ([1]; 3 mg/kg, Rat N40 Gating, 3 mg/kg sc, 30 min, read-out: Plasma Mean ± SD)?
The concentration at 30 min was 1360 nM.

What about the concentration at 30 min ([1]; subcutaneous, 10 mg/kg, N40 gating, read-out: average plasma concentration at dose with loss of efficacy) of the same compound?
The concentration at 30 min was 3310 nM.

What about the inhibition at 10 µM (Muscarinic M3) of the same compound?
Its inhibition at 10 µM is 18%.
